We go through eight compounds from PMC9135253, “Potential of phenothiazines to synergistically block calmodulin and reactivate PP2A in cancer cells” (PLoS ONE, 2022).

“And” between values parts separate entries of the source, which are not always exact repeats. Identical values can stand only once. Like-named read-outs stand apart in the source and are kept apart here. Where only a bound is given, the exact number is not on record here.

Assay type in all cases: cell-based
Test [1] has as its system NCI-H358 (KRAS-G12C) 3D spheroids. The test can be described thus: 3D spheroid formation assay (alamarBlue), NCI-H358. The method, then: (§1) 3D spheroid formation assays were performed in 96-well low-attachment, suspension culture plates (cat. no. 655185, Cellstar, Greiner Bio-One) under serum free conditions. About 1000 cells per well were seeded in 50 μL RPMI medium (cat. no. 52400–025, Gibco, ThermoFisher Scientific) containing 0.5% (v/v) MethoCult (cat. no. SF H4636, Stemcell technologies), 1X B27 (cat. no. 17504044, Gibco, ThermoFisher Scientific), 25 ng/mL EGF (cat. no. E9644, Sigma-Aldrich) and 25 ng/ mL FGF (cat. no. RP-8628, ThermoFisher Scientific). Cells were cultured for 3 days and then treated with compounds or vehicle control (DMSO 0.1% (v/v) in growth medium) for another 3 days. The cells were supplemented with fresh growth medium on the third day together with the drug treatment. Spheroid formation efficiency was analyzed by alamarBlue assay reagent (cat. no. DAL1100, ThermoFisher Scientific).
(§2) A 10% (v/v) final volume of alamarBlue reagent was added to each well of the plate and incubated for 4 h at 37°C. Then the fluorescence intensity (λexcitation 560 ± 5 nm and λemission 590 ± 5 nm) was measured using the FLUOstar OPTIMA plate reader (BMG Labtech, Germany).
(§3) (A) Heatmap of ATARiS gene sensitivity scores of two KRAS dependent cell lines (NCI-H358 and MDA-MB-231) and a BRAF dependent cell line (A375). Negative values (shaded red) indicate sensitivity of the cell line proliferation to the knockdown of shown genes, whereas positive scores (shaded blue) indicate insensitivity. (B) IC50 values for indicated compounds in Ras pathway mutant cell lines NCI-H358, MDA-MB231 and A375 grown as 3D spheroids under serum free conditions. […] Statistical comparisons were done using the average values across all three cell lines. […] Positive scores indicate synergistic drug interactions whereas negative scores would denote antagonistic drug interactions. A score of zero would indicate no antagonistic or synergistic effect. (D) Flow cytometric analysis of apoptosis in MDA-MB-231 cells. […] Benzethonium chloride and DMSO treated cells were used as positive and negative controls, respectively, for setting the gates. Percentage of total apoptotic cells (early and late stage) from two biological repeats (mean ± SD) is presented. Statistical analysis was performed using Fisher’s exact test comparing the total number of viable and apoptotic cells from two biological repeats. (E) Effect of inhibitors on cellular apoptosis studied using Caspase-3/7Glo assay. […] The caspase-3/7 activity was measured as a luminescence read-out and normalized to the vehicle control, 0.05% (v/v) DMSO. […] GAPDH detection was used as loading control.
(In general: Resazurin is reduced to fluorescent resorufin, in cell work by metabolically active cells.)

Test [2] deals with A375 (BRAF-V600E) 3D spheroids. The test can be described thus: 3D spheroid formation assay (alamarBlue), A375. The method, then:
as §1, §2, §3

In test [3] the test system is MDA-MB-231 (KRAS-G13D) 3D spheroids. The test can be described thus: 3D spheroid formation assay (alamarBlue), MDA-MB-231. The method, then:
as §1, §2, §3

Test [4] concerns K-RasG12V (Rluc8-/GFP2-tagged) in HEK-293 EBNA cells. The test can be described thus: K-RasG12V nanoclustering-BRET assay. The note with it: for K-RasG12V BRET: compounds 20 μM, FTI-277 1 μM, OphA 2.5 μM, 24 h. A general note: In BRET a luciferase serves as donor, and the signal depends on an acceptor being close.
For test [5], the system named is H-RasG12V (Rluc8-/GFP2-tagged) in HEK-293 EBNA cells. Put plainly: H-RasG12V nanoclustering-BRET assay. To be noted: for H-RasG12V BRET: compounds 20 μM, FTI-277 1 μM, OphA 2.5 μM, 24 h.
Test [6] relates to MDA-MB-231 cells. Put plainly: Flow cytometry-based apoptosis assay (Annexin V-FITC / 7-AAD). To be noted: DT-061 10 μM, calmidazolium 5 μM or combination, 24 h. The method, then: MDA-MB-231 cells were grown for 24 h in complete RPMI medium. The next day the cells were treated with inhibitors for 24 h. […] The cells were labelled using the Annexin V-FITC / 7-AAD apoptosis-detection kit (Beckman-Coulter, cat. no. B60224-AB) according to the manufacturer’s instruction.
as §3, with “Negative” for “(A) Heatmap of ATARiS gene sensitivity scores of two KRAS dependent cell lines (NCI-H358 and MDA-MB-231) and a BRAF dependent cell line (A375). Negative”

Test [7] concerns pERK/ERK in MIA PaCa-2 cells. The test can be described thus: Western blot of MAPK signaling output (pERK/ERK). The note with it: for normalized pERK/ERK ratio %: MIA PaCa-2 + EGF. For orientation: Immunoblotting shows a protein as a band on a membrane.
Test [8] relates to MDA-MB-231 cells. The test can be described thus: 2D cell viability assay (alamarBlue), MDA-MB-231. To be noted: MDA-MB-231, 72 h.
Test [9] relates to MIA PaCa-2 cells. Put plainly: 2D cell viability assay (alamarBlue), MIA PaCa-2. The note with it: MIA PaCa-2, 72 h.
The subject of test [10] is HEK-293 EBNA cells. The test can be described thus: 2D cell viability assay (alamarBlue), HEK-293 EBNA. The note with it: 72 h.
The mark [11] stands for this setting: Homo sapiens, A-375, 72 h, A375 3D spheroids, serum free, 3 days treatment, replicates N1, N2.
[12] abbreviates: Homo sapiens, A-375, A375 3D spheroids, Mean, n = 2.
The mark [13] stands for this setting: A/D plasmid ratio 4/1, individual replicates N1.1-N3.4.
[14] abbreviates: A/D plasmid ratio 4/1, individual replicates N1.1-N2.4.
The mark [15] stands for this setting: early and late stage, replicates N1, N2.
Setting [16] is: Homo sapiens, NCI-H358, NCI-H358 3D spheroids, Mean, n = 2, read-out: IC50 values.
Where [17] appears, read: NCI-H358 3D spheroids, serum free, 3 days treatment, replicates N1, N2, read-out: IC50 values.
[18] abbreviates: A375 3D spheroids, serum free, 3 days treatment, replicates N1, N2.
Setting [19] is: Homo sapiens, MDA-MB-231, MDA-MB-231 3D spheroids, Mean, n = 2, read-out: IC50 values.
The mark [20] stands for this setting: MDA-MB-231 3D spheroids, serum free, 3 days treatment, replicates N1, N2, read-out: IC50 values.
[21] abbreviates: K-RasG12V nanoclustering-BRET dose response (0.1–80 μM; OphA 0.3–20 μM), replicates.
Setting [22] is: K-RasG12V nanoclustering-BRET, mean.
The mark [23] stands for this setting: H-RasG12V nanoclustering-BRET dose response (0.1–80 μM; OphA 0.3–20 μM), replicates.
[24] abbreviates: H-RasG12V nanoclustering-BRET, mean.

With `C=CC(=O)N1CCN(c2ncnc3c(F)c(-c4c(O)cccc4F)c(Cl)cc23)CC1` [ARS-1620], the IC50 (commonly the concentration that inhibits the measured activity by half) in [1] (Homo sapiens, NCI-H358, 72 h, read-out: IC50 values, NCI-H358 3D spheroids, serum free, 3 days treatment, replicates N1, N2) is 600 nM; in test [1] (Homo sapiens, NCI-H358, read-out: IC50 values, NCI-H358 3D spheroids, Mean, n = 2), 460 nM; in test [1] (read-out: IC50 values, NCI-H358 3D spheroids, serum free, 3 days treatment, replicates N1, N2), 320 nM; in test [2] (setting [11]) it was over 40000 nM; in [2] (setting [12]), over 40000 nM; in test [3] (Homo sapiens, MDA-MB-231, 72 h, read-out: IC50 values) it was over 40000 nM. Further, the 50% inhibitory concentration (IC50) in test [3] (Homo sapiens, MDA-MB-231, read-out: IC50 values) is over 40000 nM.

As to `COC(=O)[C@H](CCSC)NC(=O)c1ccc(NC[C@@H](N)CS)cc1-c1ccccc1` [FTI-277], the “K-RasG12V BRET” value in test [4] (setting [13]) was 72.2368 and 88.8749 and 88.6228 and 90.7219 and 73.1065 and 73.006 and 71.9005 and 74.3032 and 75.1082 and 75.0152 and 73.992 and 87.4754; in [4] (mean), 78.7. Moreover, the “H-RasG12V BRET” value is 55.9675 and 54.6788 and 57.991 and 55.5016 and 58.8518 and 57.6476 and 60.7427 and 58.4164 in test [5] (setting [14]); 57.47 in test [5] (mean).

With `CC(C)(C)CC(C)(C)c1ccc(OCCOCC[N+](C)(C)Cc2ccccc2)cc1` [benzethonium Cl, Benzethonium chloride], the “apoptotic cells (%)” value was 93.0493% and 96.0998% in test [6] (setting [15]); 94.57% in [6] (mean).

With `Clc1ccc(C(c2ccc(Cl)cc2)n2cc[n+](CC(OCc3ccc(Cl)cc3Cl)c3ccc(Cl)cc3Cl)c2)cc1` (stereo not shown) [calmidazolium], the IC50 in [1] (Homo sapiens, NCI-H358, 72 h, NCI-H358 3D spheroids, serum free, 3 days treatment, replicates N1, N2, read-out: IC50 values) was found to be 1300 nM; in test [1] (setting [16]), 1300 nM; in test [1] (setting [17]) it was 1290 nM; in test [2] (setting [18]), 1510 nM; in test [2] (setting [11]), 1100 nM; in [2] (setting [12]), 1310 nM. The IC50 in test [3] (setting [19]) is 1370 nM; in test [3] (setting [20]), 830 nM and 1900 nM. For the same compound, the “apoptotic cells (%)” value in test [6] (setting [15]) was 46.8015% and 19.4293%; in test [6] (mean) it was 33.12%. For the same compound, the “DSS3 BRET score” value in test [4] (setting [21]) is 7.4 and 5.3 and 6.1; in test [4] (setting [22]), 6.27; in test [5] (setting [23]), 4.1 and 3.4; in test [5] (setting [24]), 3.75. The “K-RasG12V BRET” value in test [4] (setting [13]) is 56.1219 and 37.0972 and 36.7653 and 36.0615 and 56.3093 and 55.7392 and 55.8068 and 41.7975 and 44.4475 and 43.3047 and 43.8108 and 37.7034; in test [4] (mean) it was 45.41. For the same compound, the “H-RasG12V BRET” value is 65.4602 and 65.6531 and 66.0593 and 64.447 and 71.623 and 67.855 and 69.3028 and 69.9269 in test [5] (setting [14]); 67.54 in test [5] (mean). Besides, in test [7] (2 h, trametinib 1 μM, AMG-510 1 μM, calmidazolium 20 μM, DT-061 20 μM, combination each 10 μM, fluphenazine mustard 20 μM, replicates N1-N3, listed as camidazolium), the “normalized pERK/ERK ratio %” value was 79.2728% and 51.9352% and 71.8958%.

On to `OCCN1CCN(CCCN2c3ccccc3Sc3ccc(C(F)(F)F)cc32)CC1` [fluphenazine], for which the “effect on the RasG12V-BRET signals (in words)” value in test [4] (K-RasG12V and H-RasG12V biosensors) is on record as “Neither the PP2A activator DT-061, nor Flu had an effect”. For the same compound, the “DSS3 BRET score” value in [4] (setting [21]), in [4] (setting [22]), in [5] (setting [23]) and in test [5] (setting [24]) was 0 each time. The “K-RasG12V BRET” value in [4] (setting [13]) is 116.984 and 104.752 and 101.237 and 99.6761 and 117.221 and 114.254 and 111.203 and 106.486 and 102.332 and 104.758 and 105.192 and 105.738; in [4] (mean) it was 107.49. The “H-RasG12V BRET” value in test [5] (setting [14]) is 118.298 and 116.824 and 118.266 and 116.921 and 102.254 and 101.937 and 104.771 and 99.5349; in [5] (mean) it was 109.85. Further, the “2D monolayer DSS3” value in test [8] (Mean) was 28.4; in test [8] (replicates N1-N3) it was 26.6 and 29.8 and 28.8; in test [9] (Mean), 46.37; in test [9] (replicates N1-N3), 33.6 and 46.1 and 59.4; in test [10] (Mean), 9.5; in [10] (replicates N1-N3), 9.9 and 9.2 and 9.4.

Take `CC(C)=C[C@H]1C[C@H](C)[C@]2(CC[C@]3(C)C[C@H]4[C@H](C(=O)C[C@@]4(C)O)/C(C=O)=C\C[C@H]32)O1` [ophiobolin A]: the “DSS3 BRET score” value is 21.8 and 20.9 in [4] (setting [21]); 21.35 in test [4] (setting [22]); 7.5 and 2.2 in test [5] (setting [23]); 4.85 in test [5] (setting [24]). The “K-RasG12V BRET” value in test [4] (mean) was 75.39. Further, in test [5] (mean), the “H-RasG12V BRET” value is 87.26.

Take `CC(=O)Nc1cccc(-n2c(=O)n(C3CC3)c(=O)c3c(Nc4ccc(I)cc4F)n(C)c(=O)c(C)c32)c1` [trametinib]: in test [7] (MIA PaCa-2), the “potency relative to Flu-M in MAPK-signaling (pERK) inhibition” value is on record as “at least 20 times”. Further, the “normalized pERK/ERK ratio %” value was 32.0097% and 10.8438% and 18.176% in test [7] (2 h, trametinib 1 μM, AMG-510 1 μM, calmidazolium 20 μM, DT-061 20 μM, combination each 10 μM, fluphenazine mustard 20 μM, replicates N1-N3); 20.34% in [7] (same treatments, mean).

Regarding `CN1CCN(CCCN2c3ccccc3Sc3ccc(C(F)(F)F)cc32)CC1` [triflouperazine, trifluoperazine], the IC50 in test [1] (setting [16]) was 690 nM; in [1] (setting [17]) it was 390 nM and 980 nM; in test [2] (setting [18]), 360 nM; in [2] (setting [11]), 250 nM; in [2] (setting [12]), 310 nM; in test [3] (Homo sapiens, MDA-MB-231, 72 h, MDA-MB-231 3D spheroids, serum free, 3 days treatment, replicates N1, N2, read-out: IC50 values), 430 nM. For the same compound, the half-inhibitory concentration (IC50) in [3] (setting [19]) was 590 nM; in [3] (setting [20]) it was 740 nM.
